Test results: article PMC7247319, “The mitochondria-targeted peptide SS-31 binds lipid bilayers and modulates surface electrostatics as a key component of its mechanism of action” (The Journal of Biological Chemistry, 2020)
Where a SMILES comes first, the peptide text is derived from it. [ ]: non-standard residue; d: D form. Dmt = Cc1cc(O)cc(C)c1C[C@H](N)C(=O)O

Test system: LUVs containing 20 mol % TOCL or POPG
Experiment: Zeta potential measurements of LUVs with increasing peptide
Details: LUVs 100 μM total lipid, n = 3
Procedure: Figure 3. SS-31 binding and surface electrostatics. A, binding isotherms. Peptide was titrated with LUVs of the indicated composition (20% TOCL, [SS-31] = 7.5 μM and 20% POPG, [SS-31] = 3.8 μM) at 30-nmol total lipid increments in the presence of different concentrations of added KCl. Values shown are means ± S.D. (error bars) (n = 3), and lines show data fits based on Equation S3. […] B and C, effect of SS-31 binding on surface charge. Measurements of ζ (B) and ANS fluorescence (C) are shown as a function of [SS-31]/[lipid]^eff for membranes containing 20% TOCL and 20% POPG as indicated. Values shown are means ± S.D. (error bars) (n = 3).
To continue this analysis, we determined the relationship between SS-31 binding and surface electrostatics by two complementary approaches. We first performed zeta potential (ζ) measurements of LUVs containing 20 mol % TOCL or POPG with increasing [SS-31] (Fig. 3B). […] As an independent technique, we measured the effect of SS-31 on surface electrostatics using 1-anilinonaphthalene-8-sulfonic acid (ANS), a fluorescent reporter whose binding to anionic bilayers increases as the magnitude of the ψs is reduced, measured as an increase in probe emission intensity ([42]) (Fig. 3C and Fig. S9D). […]

With `Cc1cc(O)cc(C)c1C[C@H](NC(=O)[C@H](N)CCCNC(=N)N)C(=O)N[C@@H](CCCCN)C(=O)N[C@@H](Cc1ccccc1)C(N)=O` [SS-31, D-Arg-2′6′-dimethyl-Tyr-Lys-Phe-NH2] (H-[dR][Dmt]KF-NH2) the “zeta potential (ζ) at saturation with increasing peptide” value was roughly −30 mV.
